From US20130053357A1, “SKIN IRRITATION SUPPRESSANT AND TRANSDERMAL PREPARATION” (HISAMITSU PHARMACEUTICAL CO., INC., priority 2010, published 2013)
Counter-ions that a name gives are not always drawn. Like-named read-outs stand apart in the source and are kept apart here.

Experiments:
[1] = test system: human three-dimensional culture epidermal model (LabCyte EPI-MODEL); experiment: Suppression by cholesterol of skin irritation mediator production induced by asenapine and LADA in a human epidermal cell (Experiment 6); format: cell-based; settings: without or with 1% by mass of cholesterol
Description: (§1) A human three-dimensional epidermal culture model obtained by multilayer-culturing a human normal epidermal cell (LabCyte EPI-MODEL, manufactured by Japan Tissue Engineering Co., Ltd.) was used. LabCyte is a cultured skin cultured in a transwell. For the experiment, LabCyte was used with the transwell.
(§2) The experiment was conducted as below. First, LabCyte was put into a 24-well assay plate. Then, 1 ml of assay medium (Japan Tissue Engineering Co., Ltd.) was added so that it was brought into contact with a bottom surface of the cultured skin in each well of the 24-well assay plate, and was pre-cultured in an incubator with 5% of carbon dioxide concentration at 37° C. for 1 hour.
(§3) The test solutions of each group were added to the cells, the culture solutions incubated for 48 hours were collected, and a production amount of each skin irritation mediator was measured. The skin irritation mediator was measured by using a commercially available ELISA kit (manufactured by R&D Systems, Inc.). A relative production amount of the skin irritation mediator in each test substance was calculated as below, when the production amount of the skin irritation mediator in the PMA Only Group was set to 100.
Cholesterol was used as a test substance. Asenapine and lauric acid diethanolamide (LADA) were used as the cutaneous irritants.
Tests were conducted by the following group composition. • Solvent Group: A group including only vehicle. Olive oil was used as a vehicle. • Skin Irritant Only Group: A group with addition of only cutaneous irritant dispersed in a vehicle, as a test solution. The concentration of asenapine maleate to be added was 0.6% (asenapine group), and that of LADA was 0.03% (LADA group). • Skin Irritant Plus Cholesterol Group: A group with addition of the drug and 1% by mass of cholesterol which were dispersed in a vehicle, as a test solution.
The experiment was conducted while other conditions were set in the same manner as Experiment 1.

[2] = test system: human three-dimensional culture epidermal model (LabCyte EPI-MODEL); experiment: Production of skin irritation mediators induced by PMA in human three-dimensional epidermal culture model (Experiment 1); format: cell-based; settings: for activity at 0.01 % / activity at 1 % / activity at 0.1 %: Homo sapiens, 48 hours; for activity at 0.01 %: test substance 0.01 mass % with PMA in olive oil; for Effect on skin irritation mediator production by PMA (in words): summary of Table 1; for activity at 1 %: test substance 1 mass % with PMA in olive oil; for activity at 0.1 %: test substance 0.1 mass % with PMA in olive oil
Source text: Changes in production amounts of skin irritation mediators by test substances were examined when cutaneous irritants were caused to act on a human three-dimensional culture epidermal model.
as §1
As test substances, there were used cholesterol (manufactured by Wako Pure Chemical Industries, Ltd.), β-sitosterol (manufactured by TAMA BIOCHEMICAL CO., LTD.), α-spinasterol (manufactured by ChromaDex, Inc.), ergosterol (manufactured by Wako Pure Chemical Industries, Ltd.), campesterol (manufactured by TAMA BIOCHEMICAL CO., LTD.), glycyrrhizin (manufactured by Wako Pure Chemical Industries, Ltd.), glycyrrhetinic acid (manufactured by Wako Pure Chemical Industries, Ltd.), ginsenoside (manufactured by Wako Pure Chemical Industries, Ltd.), squalene (manufactured by Wako Pure Chemical Industries, Ltd.), squalane (manufactured by Tokyo Chemical Industry Co., Ltd.) and lanosterol (manufactured by ChromaDex, Inc.), which are candidates of a skin irritation suppressant.
As skin irritants, Phorbol 12-Myristate 13-Acetate (PMA, manufactured by Wako Pure Chemical Industries, Ltd.) was used. In addition, as vehicle, olive oil (manufactured by Wako Pure Chemical Industries, Ltd.) was used.
Experiments were conducted by the following group composition. • PMA Only Group: A group with addition of only 0.00001 mol of PMA dispersed in a vehicle, as a test solution. • Test Substance Group: A group with addition of 0.00001 mol of PMA and the test substance which were dispersed in a vehicle, as a test solution.
as §2
Next, a cell survival rate was measured by the MTT method after causing the test solutions of each group to act. Specifically, 50 μL of the test solution of each group was added to the surface of the LabCyte after preculture, was cultured in the incubator with 5% of carbon dioxide concentration at 37° C. for 48 hours, then was transferred to the assay medium comprising 0.5 mg/ml of MTT reagent, and was cultured in the incubator with 5% of carbon oxide level at 37° C. for 3 hours. Then, LabCyte was immersed in 0.3 ml of an isopropanol solution, and the produced blue-purple formazan was extracted for 2 hours. After extraction, an absorbance at 570 nm was measured by a 96 microplate reader. The cell survival rate was calculated as below.
Cell survival rate (%)=(absorbance of Test Substance Group)/(absorbance of PMA Only Group)×100
Subsequently, a production amount of the skin irritation mediator at a test substance concentration with 80% or more of cell survival rate was measured. As skin irritation mediators, PGE2, IL-1α, IL-6, IL-8 were measured.
as §3
Relative production amount=(production amount of the mediator in Test Substance Group)/(production amount of the mediator in PMA Only Group)×100

[3] = test system: croton oil-induced mouse ear swelling; experiment: Suppression of croton oil-induced mouse ear swelling reaction (Experiment 3); format: in vivo; settings: for Inhibition Ratio Of Ear Swelling: ddY female mouse, 1% by mass of test substance in 2% croton oil solution, 25 μL on ears, auricular thickness 6 hours after; for Effect on croton oil-induced mouse ear swelling reaction (in words): summary of Table 3
Source text: <Suppression of Croton Oil-Induced Mouse Ear Swelling Reaction by the Test Substances>
Suppression of mouse ear swelling was examined through the use of croton oil (Wako Pure Chemical Industries, Ltd.) as a swelling inducer. A 7-week-old ddY female mouse (SPF) was subjected to an experiment. As test substances, cholesterol, glycyrrhizin, glycyrrhetinic acid, squalene, ergosterol, squalane and lanosterol were used. As a vehicle, acetone (Wako Pure Chemical Industries, Ltd.) was used.
Experiments were conducted by the following group composition. • Positive Control Group: A group which received only the vehicle as a primary test solution, and one hour after, received a 2% croton oil solution as a secondary test solution. • Test Substance Group: A group in which only the vehicle was administered as a primary test solution, and one hour after, a 2% croton oil solution including 1% by mass of test substance was administered as a secondary test solution.
An inhibition ratio of ear swelling was calculated as below. In this test, a […] inflammation model is used to examine immediate swelling reactions. In accordance with the group composition, 25 μL of the primary test solution was uniformly coated on back sides of both ears in an etherize mouse, and one hour after, 25 μL of the secondary test solution was uniformly coated in accordance with the group composition. Prior to coating of the secondary test solution, a thickness of auricle was measured by DIAL […] GAUGE (OZAKI MFG CO., LTD.). Furthermore, the secondary test solution was administered, and 6 hours after, the auricular thickness was measured in the same way as mentioned above, and an increased amount of the auricular thickness was set by deducting the thickness measured prior to administration of the secondary test solution. The inhibition ratio of ear swelling was calculated as below.
Inhibition ratio of ear swelling (%)=(increased amount of auricular thickness in Test Substance Group−increased amount of auricular thickness in Negative Control Group)/(increased amount of auricular thickness in Positive Control Group−increased amount of auricular thickness in Negative Control Group)×100

[4] = asenapine maleate 0.6% in olive oil
[5] = read-out: Relative Production Amount of Skin Irritation Mediator when Production Amount in PMA Only Group is Set to 100: IL-1α
[6] = read-out: Relative Production Amount of Skin Irritation Mediator when Production Amount in PMA Only Group is Set to 100: IL-6
[7] = read-out: Relative Production Amount of Skin Irritation Mediator when Production Amount in PMA Only Group is Set to 100: IL-8
[8] = read-out: Relative Production Amount of Skin Irritation Mediator when Production Amount in PMA Only Group is Set to 100: PGE2

Row | Structure (SMILES) | activity at 0.01 % [2, 5] | activity at 0.01 % [2, 6] | activity at 0.01 % [2, 7] | activity at 0.01 % [2, 8] | Effect on skin irritation mediator production by PMA (in words) [2] | Inhibition Ratio Of Ear Swelling [3] | Effect on croton oil-induced mouse ear swelling reaction (in words) [3] | also measured
1 | CN1CC2c3ccccc3Oc3ccc(Cl)cc3C2C1 (stereo not drawn) [Asenapine, asenapine maleate] |  |  |  |  |  |  |  | Production Amount of Skin Irritation Mediator: IL-1A [1, 4]: 17.24 pg/mL; Production Amount of Skin Irritation Mediator: IL-6 [1, 4]: 0.00 pg/mL; Production Amount of Skin Irritation Mediator: IL-8 [1, 4]: 174.90 pg/mL; Production Amount of Skin Irritation Mediator: PGE2 [1, 4]: 125.85 pg/mL; Production Amount of Skin Irritation Mediator: TNFA [1, 4]: 0.00 pg/mL
2 | CC1(C)[C@@H](O)CC[C@]2(C)[C@H]3C(=O)C=C4[C@@H]5C[C@@](C)(C(=O)O)CC[C@]5(C)CC[C@@]4(C)[C@]3(C)CC[C@@H]12 [Glycyrrhetinic Acid, glycyrrhetinic acid] | 77% | 46% | 81% | 48% | exhibited effects of suppressing the skin irritation mediator production by PMA | 53.4% | suppress croton oil-induced mouse ear swelling reaction | 
3 | CC1(C)[C@@H](O[C@H]2O[C@H](C(=O)O)[C@@H](O)[C@H](O)[C@H]2O[C@@H]2O[C@H](C(=O)O)[C@@H](O)[C@H](O)[C@H]2O)CC[C@]2(C)[C@H]3C(=O)C=C4[C@@H]5C[C@@](C)(C(=O)O)CC[C@]5(C)CC[C@@]4(C)[C@]3(C)CC[C@@H]12 [Glycyrrhizin, glycyrrhizin] | 85% | 105% | 154% | 114% | exhibited effects of suppressing the skin irritation mediator production by PMA | 34.1% | suppress croton oil-induced mouse ear swelling reaction | 
4 | CCCCCCCCCCCC(=O)N(CCO)CCO [LADA, lauric acid diethanolamide] |  |  |  |  |  |  |  | Production Amount of Skin Irritation Mediator: IL-1α ([1]; LADA 0.03% in olive oil): 29.85 pg/mL; Production Amount of Skin Irritation Mediator: IL-6 ([1]; LADA 0.03% in olive oil): 0.00 pg/mL; Production Amount of Skin Irritation Mediator: IL-8 ([1]; LADA 0.03% in olive oil): 160.29 pg/mL; Production Amount of Skin Irritation Mediator: PGE2 ([1]; LADA 0.03% in olive oil): 30.64 pg/mL; Production Amount of Skin Irritation Mediator: TNFα ([1]; LADA 0.03% in olive oil): 0.00 pg/mL
5 | CC(C)=CCC[C@@H](C)[C@H]1CC[C@@]2(C)C3=C(CC[C@]12C)[C@@]1(C)CC[C@H](O)C(C)(C)[C@@H]1CC3 [Lanosterol, lanosterol] |  |  |  |  | exhibited effects of suppressing the skin irritation mediator production by PMA | 65.9% | suppress croton oil-induced mouse ear swelling reaction | activity at 1 % [2, 5]: 76%; activity at 1 % [2, 6]: 90%; activity at 1 % [2, 7]: 73%; activity at 1 % [2, 8]: 47%
6 | CC(C)CCCC(C)CCCC(C)CCCCC(C)CCCC(C)CCCC(C)C (stereo not drawn) [Squalane, squalane] |  |  |  |  | exhibited effects of suppressing the skin irritation mediator production by PMA | 61.6% | suppress croton oil-induced mouse ear swelling reaction | activity at 0.1 % [2, 5]: 18%; activity at 0.1 % [2, 6]: 55%; activity at 0.1 % [2, 7]: 39%; activity at 0.1 % [2, 8]: 41%
7 | CC(C)=CCC/C(C)=C/CC/C(C)=C/CC/C=C(\C)CC/C=C(\C)CCC=C(C)C [Squalene, squalene] | 10% | 0% | 131% | 88% | exhibited effects of suppressing the skin irritation mediator production by PMA | 44.4% | suppress croton oil-induced mouse ear swelling reaction | 
